According to PMC5291709, “Structure of the active form of human origin recognition complex and its ATPase motor module” (eLife, 2017):
Where a chain is given by its changes, count along the chain named.

What was measured:
[1] = target: T1, HsORC motor module (HsORC1/4/5) (Homo sapiens, UniProt O43913+O43929+Q13415, O43929:D159A/Q13415:D620A); experiment: radiolabelled ATPase assay, TLC; format: biochemical; conditions: 50 mM Hepes-NaOH pH 7.5, 200 mM KCl, 5 mM MgCl2, 5 mM DTT, 37 C, 12.5-200 uM ATP, 10 uM complex; [gamma-32P]ATP tracer; ORC1/4 interface; double Walker-B mutant
T1 construct: gene ORC1; ORC1 471-861 (BAH domain removed), ORC4 full-length 1-436, ORC5 1-284 (WHD removed); Sf9 insect cells, two-Strep-SumoStar tag on ORC1 cleaved; heterotrimer
T1 sequence (Q13415 471-861 D620A): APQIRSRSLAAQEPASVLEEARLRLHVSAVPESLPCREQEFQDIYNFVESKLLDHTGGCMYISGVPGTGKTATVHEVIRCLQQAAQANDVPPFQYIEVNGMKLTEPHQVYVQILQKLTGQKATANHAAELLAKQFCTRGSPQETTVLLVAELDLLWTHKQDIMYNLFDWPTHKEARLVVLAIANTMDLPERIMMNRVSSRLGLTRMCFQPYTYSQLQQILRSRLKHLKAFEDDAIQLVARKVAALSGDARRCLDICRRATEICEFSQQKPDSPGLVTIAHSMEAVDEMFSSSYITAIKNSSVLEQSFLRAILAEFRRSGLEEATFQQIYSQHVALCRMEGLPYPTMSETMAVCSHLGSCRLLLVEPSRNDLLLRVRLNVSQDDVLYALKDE
T1 sequence (O43929 1-436 D159A): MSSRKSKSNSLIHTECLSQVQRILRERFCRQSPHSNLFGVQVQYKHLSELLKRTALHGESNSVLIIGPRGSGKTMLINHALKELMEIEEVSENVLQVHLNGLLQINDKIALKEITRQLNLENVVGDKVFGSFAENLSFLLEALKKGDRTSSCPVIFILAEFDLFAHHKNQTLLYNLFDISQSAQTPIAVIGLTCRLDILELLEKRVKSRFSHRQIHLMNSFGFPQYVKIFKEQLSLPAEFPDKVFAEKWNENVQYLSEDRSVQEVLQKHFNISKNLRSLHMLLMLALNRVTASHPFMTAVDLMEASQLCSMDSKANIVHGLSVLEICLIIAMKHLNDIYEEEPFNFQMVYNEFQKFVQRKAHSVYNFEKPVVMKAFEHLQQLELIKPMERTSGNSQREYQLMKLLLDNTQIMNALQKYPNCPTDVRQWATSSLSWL
T1 sequence (O43913 1-284): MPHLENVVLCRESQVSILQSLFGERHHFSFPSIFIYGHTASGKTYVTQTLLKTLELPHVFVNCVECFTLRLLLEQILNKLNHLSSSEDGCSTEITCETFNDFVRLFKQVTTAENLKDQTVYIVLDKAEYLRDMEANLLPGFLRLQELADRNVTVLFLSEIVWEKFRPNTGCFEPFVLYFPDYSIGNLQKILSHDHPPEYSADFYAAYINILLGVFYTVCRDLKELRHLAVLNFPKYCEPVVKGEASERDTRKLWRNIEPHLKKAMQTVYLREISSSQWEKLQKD

[2] = target: T2, HsORC motor module (HsORC1/4/5) (Homo sapiens, UniProt O43913+O43929+Q13415); experiment: X-ray crystal structure, […] A; format: binding; conditions: unhydrolysed ATP at the ORC1/ORC4 and ORC4/ORC5 interfaces and on ORC5; Mg2+
T2 construct: gene ORC1; ORC1 471-861 (BAH domain removed), ORC4 full-length 1-436, ORC5 1-284 (WHD removed); Sf9 insect cells, two-Strep-SumoStar tag on ORC1 cleaved; heterotrimer
T2 sequence (Q13415 471-861): T1 sequence (Q13415 471-861 D620A) with A150D
T2 sequence (O43929 1-436): T1 sequence (O43929 1-436 D159A) with A159D
T2 sequence (O43913 1-284): T1 sequence (O43913 1-284)

[3] = target: T3, HsORC motor module (HsORC1/4/5) (Homo sapiens, UniProt O43913+O43929+Q13415, Q13415:R720Q); experiment: radiolabelled ATPase assay, TLC; format: biochemical; conditions: 50 mM Hepes-NaOH pH 7.5, 200 mM KCl, 5 mM MgCl2, 5 mM DTT, 37 C, 12.5-200 uM ATP, 10 uM complex; [gamma-32P]ATP tracer; ORC1/4 interface; Meier-Gorlin Syndrome mutant (sensor-2 trigger)
T3 construct: gene ORC1; ORC1 471-861 (BAH domain removed), ORC4 full-length 1-436, ORC5 1-284 (WHD removed); Sf9 insect cells, two-Strep-SumoStar tag on ORC1 cleaved; heterotrimer
T3 sequence (Q13415 471-861 R720Q): T1 sequence (Q13415 471-861 D620A) with A150D, R250Q
T3 sequence (O43929 1-436): T1 sequence (O43929 1-436 D159A) with A159D
T3 sequence (O43913 1-284): T1 sequence (O43913 1-284)

HsORC1-5 = target: T4, HsORC1-5 (Homo sapiens, UniProt O43913+O43929+Q13415, Q13415:R720Q); experiment: radiolabelled ATPase assay, TLC; format: biochemical; conditions: 50 mM Hepes-NaOH pH 7.5, 200 mM KCl, 5 mM MgCl2, 5 mM DTT, 37 C, 12.5-200 uM ATP, 10 uM complex; [gamma-32P]ATP tracer; ORC1/4 interface; Meier-Gorlin Syndrome mutant
T4 construct: gene ORC1; heteropentamer without ORC6; Sf9 insect cells; with Origin recognition complex subunit 5; Origin recognition complex subunit 2; Origin recognition complex subunit 3
T4 sequence (Q13415 471-861 R720Q): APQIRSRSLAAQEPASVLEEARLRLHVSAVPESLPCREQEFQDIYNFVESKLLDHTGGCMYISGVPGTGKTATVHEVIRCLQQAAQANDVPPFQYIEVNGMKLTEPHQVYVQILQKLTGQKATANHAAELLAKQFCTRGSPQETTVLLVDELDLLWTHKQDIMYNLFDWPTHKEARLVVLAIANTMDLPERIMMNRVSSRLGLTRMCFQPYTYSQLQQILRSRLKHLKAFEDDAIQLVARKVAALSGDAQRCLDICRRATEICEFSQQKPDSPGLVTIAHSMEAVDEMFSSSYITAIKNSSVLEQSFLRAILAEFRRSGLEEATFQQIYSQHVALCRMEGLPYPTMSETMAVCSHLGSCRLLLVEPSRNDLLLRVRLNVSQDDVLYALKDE
T4 sequence (O43929 whole entry): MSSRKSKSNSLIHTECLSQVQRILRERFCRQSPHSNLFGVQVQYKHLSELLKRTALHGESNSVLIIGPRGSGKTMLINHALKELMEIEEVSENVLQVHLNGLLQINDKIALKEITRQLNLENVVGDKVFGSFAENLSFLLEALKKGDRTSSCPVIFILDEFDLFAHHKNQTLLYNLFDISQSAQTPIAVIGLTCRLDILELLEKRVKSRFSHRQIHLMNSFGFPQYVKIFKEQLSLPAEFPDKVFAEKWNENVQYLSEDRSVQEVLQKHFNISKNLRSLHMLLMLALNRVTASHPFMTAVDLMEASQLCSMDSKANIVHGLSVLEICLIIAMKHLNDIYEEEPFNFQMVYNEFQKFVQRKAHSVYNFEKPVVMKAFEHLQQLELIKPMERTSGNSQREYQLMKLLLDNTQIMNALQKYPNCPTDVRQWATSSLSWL
T4 sequence (O43913 whole entry): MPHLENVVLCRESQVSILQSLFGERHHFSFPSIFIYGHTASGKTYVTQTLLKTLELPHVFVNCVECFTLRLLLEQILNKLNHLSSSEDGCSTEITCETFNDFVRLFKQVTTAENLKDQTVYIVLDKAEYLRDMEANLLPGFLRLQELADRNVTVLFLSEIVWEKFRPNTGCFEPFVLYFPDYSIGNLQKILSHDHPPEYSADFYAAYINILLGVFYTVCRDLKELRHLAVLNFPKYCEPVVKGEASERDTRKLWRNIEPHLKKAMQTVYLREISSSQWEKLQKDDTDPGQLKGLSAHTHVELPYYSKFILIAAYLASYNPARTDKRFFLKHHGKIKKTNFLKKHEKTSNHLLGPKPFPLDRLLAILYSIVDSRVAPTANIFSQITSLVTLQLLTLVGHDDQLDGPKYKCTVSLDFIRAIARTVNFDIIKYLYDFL
T4 sequence (Q13416 whole entry partner): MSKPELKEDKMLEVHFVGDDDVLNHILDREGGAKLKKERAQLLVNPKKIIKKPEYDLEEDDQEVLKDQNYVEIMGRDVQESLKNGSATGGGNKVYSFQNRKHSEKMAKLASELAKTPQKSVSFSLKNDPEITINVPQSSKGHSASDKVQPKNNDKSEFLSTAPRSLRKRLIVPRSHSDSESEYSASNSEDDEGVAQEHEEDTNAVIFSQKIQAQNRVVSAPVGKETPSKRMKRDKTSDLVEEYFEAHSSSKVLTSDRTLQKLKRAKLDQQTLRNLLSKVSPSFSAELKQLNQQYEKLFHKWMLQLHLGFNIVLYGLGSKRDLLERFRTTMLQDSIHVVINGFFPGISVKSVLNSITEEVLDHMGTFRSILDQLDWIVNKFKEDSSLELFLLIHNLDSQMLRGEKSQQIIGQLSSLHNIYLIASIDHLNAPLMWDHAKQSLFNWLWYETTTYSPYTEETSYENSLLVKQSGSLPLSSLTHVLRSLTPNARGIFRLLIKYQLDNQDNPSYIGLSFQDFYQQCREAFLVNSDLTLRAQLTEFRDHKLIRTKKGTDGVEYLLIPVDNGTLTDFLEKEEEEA
T4 sequence (Q9UBD5 whole entry partner): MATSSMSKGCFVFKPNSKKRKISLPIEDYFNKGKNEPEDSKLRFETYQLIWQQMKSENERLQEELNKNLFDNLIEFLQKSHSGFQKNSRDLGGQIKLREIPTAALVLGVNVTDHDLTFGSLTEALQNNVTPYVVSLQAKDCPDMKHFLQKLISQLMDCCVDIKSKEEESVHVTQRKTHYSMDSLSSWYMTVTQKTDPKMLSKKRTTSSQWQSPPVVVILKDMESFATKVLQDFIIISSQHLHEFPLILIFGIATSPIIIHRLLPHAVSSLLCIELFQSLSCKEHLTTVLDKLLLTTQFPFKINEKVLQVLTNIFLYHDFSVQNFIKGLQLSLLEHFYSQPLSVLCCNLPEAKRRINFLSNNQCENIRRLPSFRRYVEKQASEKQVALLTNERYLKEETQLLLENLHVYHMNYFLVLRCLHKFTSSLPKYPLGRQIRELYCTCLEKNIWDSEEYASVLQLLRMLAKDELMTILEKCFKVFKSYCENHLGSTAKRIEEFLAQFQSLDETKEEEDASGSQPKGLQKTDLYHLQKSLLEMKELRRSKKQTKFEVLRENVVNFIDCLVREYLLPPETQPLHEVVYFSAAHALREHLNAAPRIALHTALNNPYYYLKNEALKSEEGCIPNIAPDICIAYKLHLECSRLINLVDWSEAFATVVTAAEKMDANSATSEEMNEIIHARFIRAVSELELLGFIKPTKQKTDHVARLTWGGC

[4] = target: T5, HsORC motor module (HsORC1/4/5) (Homo sapiens, UniProt O43913+O43929+Q13415, O43929:Y174C); experiment: radiolabelled ATPase assay, TLC, Michaelis-Menten fit; format: biochemical; conditions: 50 mM Hepes-NaOH pH 7.5, 200 mM KCl, 5 mM MgCl2, 5 mM DTT, 37 C, 12.5-200 uM ATP, 10 uM complex; [gamma-32P]ATP tracer; ORC1/4 interface; Meier-Gorlin Syndrome mutant
T5 construct: gene ORC1; ORC1 471-861 (BAH domain removed), ORC4 full-length 1-436, ORC5 1-284 (WHD removed); Sf9 insect cells, two-Strep-SumoStar tag on ORC1 cleaved; heterotrimer
T5 sequence (Q13415 471-861): T1 sequence (Q13415 471-861 D620A) with A150D
T5 sequence (O43929 1-436 Y174C): T1 sequence (O43929 1-436 D159A) with A159D, Y174C
T5 sequence (O43913 1-284): T1 sequence (O43913 1-284)

[5] = target: T6, HsORC motor module (HsORC1/4/5) (Homo sapiens, UniProt O43913+O43929+Q13415, Q13415:D620A); experiment: radiolabelled ATPase assay, TLC; format: biochemical; conditions: 50 mM Hepes-NaOH pH 7.5, 200 mM KCl, 5 mM MgCl2, 5 mM DTT, 37 C, 12.5-200 uM ATP, 10 uM complex; [gamma-32P]ATP tracer; ORC1/4 interface; Walker-B mutant
T6 construct: gene ORC1; ORC1 471-861 (BAH domain removed), ORC4 full-length 1-436, ORC5 1-284 (WHD removed); Sf9 insect cells, two-Strep-SumoStar tag on ORC1 cleaved; heterotrimer
T6 sequence (Q13415 471-861 D620A): T1 sequence (Q13415 471-861 D620A)
T6 sequence (O43929 1-436): T1 sequence (O43929 1-436 D159A) with A159D
T6 sequence (O43913 1-284): T1 sequence (O43913 1-284)

## Nc1ncnc2c1ncn2[C@@H]1O[C@H](COP(=O)(O)OP(=O)(O)OP(=O)(O)O)[C@@H](O)[C@H]1O [ATP]
[1]
  radiolabelled ATPase assay, TLC: A double mutant of the Walker-B motif of both ORC1 and ORC4 also abolished activity
[2]
  X-ray crystal structure, 3.4 A: The HsORC motor module crystallized with ATP, and the nucleotides can be clearly seen
[3]
  radiolabelled ATPase assay, TLC: ORC1-R720Q abolished ATPase activity of the motor module
HsORC1-5
  radiolabelled ATPase assay, TLC: the ORC1 MGS mutation R720Q all show very little activity
[4]
  ATPase activity: renders the motor module hyperactive for ATPase activity
[5]
  radiolabelled ATPase assay, TLC: Disrupting the ORC1 Walker-B motif (ORC1 D620A) effectively abolished ATPase activity
